Holding throughout (assay): NCI tumour cell line growth inhibition, 48 h
The test system of assay [1] is UO-31 renal.
Assay [2] relates to OVCAR-5 ovarian.
The test system of assay [3] is DMS 114 small cell lung.
Assay [4] has as its system SK-OV-3 ovarian.
Assay [5] concerns MALME-3M melanoma.
For assay [6], the system named is SNB-19 CNS.
Assay [7] has as its system LXFL 529 NSCLC.
The subject of assay [8] is MDA-MB-231 breast.
Assay [9] relates to MCF7 breast.
For assay [10], the system named is T-47D breast.

Where “and” joins values, the source holds several entries; their conditions need not be identical. Equal entries are not always repeated.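 Step 1: Grow cells in 96-well plates. Step 2: Expose to compound for 48 hours at 5 concentrations. Step 3: Interpolate endpoints linearly; if unreached, use highest concentration. GI50: concentration for 50% inhibition of growth. TGI: concentration producing complete growth inhibition.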

Turning to `Cc1ccc2c(c1)C1C(CO2)C(c2ccccc2)=NN1c1ccccc1` (stereo unspecified), the TGI in [1], in assay [2], in assay [3], in assay [4], in [5] and in assay [6] was above 100 µM each time. This compound had a TGI in assay [7] above 100 µM.

On to `COC(=O)N/N=C(\C(=O)Nc1cccc([N+](=O)[O-])c1)c1nc2ccc([N+](=O)[O-])cc2[nH]c1=O`, for which the TGI was above 100 µM in [1]; above 100 µM in [2]; 40.1 µM in assay [3]; above 100 µM in [4]; above 100 µM in assay [5]; above 100 µM in [6]. In assay [7], this compound registered a TGI above 100 µM.

Turning to `COC(=O)NN1C(C)=C(C(=O)OC)C2(C#N)C(C(=O)OC)=C(C)N(NC(=O)OC)C12N` (stereo unspecified), the TGI in [1], in [2], in [3], in [4], in assay [5] and in assay [6] was above 100 µM throughout. The compound further came in with a TGI in assay [7] above 100 µM.

On to `CSc1ccc(OCC2OC2O)cc1` (stereo unspecified), for which the TGI in assay [1] was above 100 µM; in assay [2], above 100 µM; in assay [3] it was 86.3 µM; in assay [4] it was above 100 µM; in assay [5], above 100 µM; in assay [6], above 100 µM. Besides, the TGI in assay [7] is above 100 µM.

For `CC1=NN2C(c3ccc(C)cc3)=CSC2=NC(C)(C)C1`, the TGI in assay [1], in assay [2], in assay [3], in assay [4], in [5] and in [6] was above 100 µM throughout. In assay [7], this compound came in with a TGI above 100 µM.

In the case of `COC(C(=O)C(O)C(C)O)C1Cc2cc3cc(OC4CC(OC5CC(O)C(O)C(C)O5)C(O)C(C)O4)c(C)c(O)c3c(O)c2C(=O)C1OC1CC(OC2CC(O)C(OC3CC(C)(O)C(O)C(C)O3)C(C)O2)C(O)C(C)O1` (stereo unspecified), the GI50 in assay [1] was 72.5 ng/mL and 3.56 ng/mL; in [2], 13 ng/mL and 3.6 ng/mL; in assay [8] it was 27.9 ng/mL and 32 ng/mL; in assay [3], 0.0556 ng/mL; in assay [9] it was 0.53 ng/mL; in [4], 16.3 ng/mL and 4.5 ng/mL. The GI50 in assay [10] is 17.5 ng/mL; in assay [5], 11.2 ng/mL and 0.642 ng/mL; in assay [6], 40.2 ng/mL. For the same compound, the TGI was 112000 ng/mL and 43500 ng/mL in assay [8]; 0.479 ng/mL in [3]; 730 ng/mL in assay [9]; 15800 ng/mL in assay [10]; above 150000 ng/mL in assay [6].

In the case of `C/C=C(/CCC1NCCC2c3ccccc3NC12)[Si](C)(C)C` (stereo unspecified), the TGI in [1] was 20.2 µM; in [2], 20 µM; in assay [3], 14.3 µM; in assay [4] it was 29.1 µM; in [6], 29 µM; in assay [7] it was 13 µM.

`NC1=NN(c2ccccc2)C(=O)C1/C(=N\NC(=O)c1cc2ccccc2cc1O)C(=O)Nc1cccc(C(F)(F)F)c1` (stereo unspecified): the TGI is above 100 µM in assay [1]; 68.4 µM in assay [2]; 83 µM in assay [3]; above 100 µM in [5]; above 100 µM in assay [6]; above 100 µM in assay [7].

With `COC(=O)C[CH2][Ge]([CH3])([CH3])[S]c1ccccc1`, the GI50 in [1] was 15.6 µM; in [2], 29.5 µM; in [4], 23.5 µM; in [5], above 100 µM; in assay [6], 32.2 µM; in assay [7], 24 µM. Besides, the TGI was 33.1 µM in assay [1]; above 100 µM in assay [2]; 67.8 µM in [4]; above 100 µM in assay [5]; 81.8 µM in [6]; 81.1 µM in assay [7].

On to `C=C(C)C1CC=C(C)CC1` (stereo unspecified), for which the GI50 in [1], in [2], in assay [3], in assay [4], in assay [5] and in assay [6] was above 100 µM each time. In addition, in [7], the GI50 is above 100 µM. Also, the TGI is > 100 µM and 1620 µM in assay [1]; > 100 µM and 2420 µM in assay [2]; > 100 µM and 1650 µM in assay [3]; > 100 µM and 1900 µM in [4]; > 100 µM and 1690 µM in [5]; > 100 µM and 1870 µM in assay [6]. Further, the TGI in [7] is > 100 µM and 1550 µM.

With `COC(=O)C1=Cc2cc(OC)c(OC)cc2[C@H](c2ccc(OC)c(OC)c2)C1C(=O)OC` (stereo partly specified), the TGI in assay [1], in [2], in assay [3], in assay [4], in assay [5] and in assay [6] was above 100 µM throughout. In [7], this compound gave a TGI above 100 µM.

Turning to `C/C(=N\NS(=O)(=O)c1ccc(C)cc1)c1cc2ccccc2n1C`, the TGI in assay [1], in assay [3], in assay [5], in assay [6] and in assay [7] was above 100 µM throughout.

Consider `COc1cc(/C=C2\Oc3cc(OCCCN4CCCC4)ccc3C2=O)cc(OC)c1`, for which the GI50 in assay [1] was 4.76 µM; in assay [2], 12.5 µM; in assay [8], 3.28 µM; in [9] it was 2.94 µM; in assay [4], 12.9 µM; in assay [10], 1.93 µM. The GI50 in assay [5] is 1.77 µM; in [6], 3.31 µM. The TGI in assay [1] was 18 µM; in [2], 25.4 µM; in assay [8], 11.1 µM; in [9], 13.4 µM; in [4], 26.1 µM; in [10] it was 4.51 µM. For the same compound, the TGI is 4.26 µM in [5] and 13.4 µM in assay [6].

For `CC(=O)[CH-]C(=O)c1ccccc1.CC(=O)[CH-]C(=O)c1ccccc1.CC1(C)OCC(C2OC3OC(C)(C)OC3C2[O-])O1.CC1(C)OCC(C2OC3OC(C)(C)OC3C2[O-])O1.[Ti+4]` (stereo unspecified), the GI50 was 12.3 µM in [2], 14.9 µM in [4], 10.5 µM in assay [5] and 11.5 µM in assay [7]. Besides, the TGI in [2] was found to be 29 µM; in assay [4], 50.3 µM; in assay [5] it was 28.5 µM; in [7], 24 µM.

For the compound `C[C@]12CC[C@H]3[C@@H](CCC4=CC(=O)CC[C@@]43C)[C@@H]1CC[C@@H]2C(=O)COS(=O)(=O)c1ccc(Br)cc1`, the TGI in assay [1] came to 3.5 µM; in [2] it was 35.2 µM; in [8] it was 17.7 µM; in assay [9], 22.5 µM; in assay [4], 38.1 µM; in assay [10], 37.5 µM. Moreover, the TGI in [5] was 12.7 µM; in assay [6], 44.6 µM.

For the origin of these results see PubChem BioAssay (NCI).
